Test results published in patent US6946475B1, “Anticancer calcium channel blockers” (University of Virginia Patent Foundation, priority 1999, dated 2005).
Where two headings read alike, the source gives them in different places.

Columns and labels:
Jurkat cells = test: Measurement of cellular proliferation, Jurkat cells; type: cell-based; conditions: for Effect on proliferation of Jurkat cells: FIGS. 10-39
Method: (§1) Measurement of cellular proliferation: LNCaP cells at 2.5×10^4/well or PC3 cells at 5×10^4/well, both in a final volume of 100 μl, were plated in triplicate in standard flat bottom 96 well tissue culture plates in the presence of drug or vehicle (DMSO). Unless otherwise indicated, cells were grown for 48 hours at 37° C. in a CO2 incubator. Relative cell growth was determined with the CellTiter 96 aqueous cell proliferation assay (Promega, Madison, Wis.) as described by the manufacturer using an automated plate reader. Results were calculated in a blinded fashion and are means of triplicate determinations.
(§2) For the 48 hour proliferation, cells were cultured with calcium channel antagonists or without calcium channel antagonists. The IC50 values of the calcium channel antagonists were determined.
(§3) Using the measurement cell proliferation assay described hereinabove, the cell lines Jurkat, LNCap (prostate cancer cell), PC-31 (prostate cancer cell), DU145 (prostate cancer cell), MDA-468 (breast cancer cell), MDA-36 (Breast cancer cell), MCF-7 (breast cancer cell), MIA PaCa-2 (pancreatic cancer cell), Hep G2 (liver cancer cell), A549 (non-small cell lung cancer cells), NCI H460 (non-small cell lung cancer cells), HT-29 (colon cancer cell), HCT-116 (colon cancer cell) and SK OV-3 (ovarian cancer cell) were cultured in the presence of TH-1177, TH-1205, TH-1201, TH-2109, TH-2029, TH-2043, TN-2085 and TH-2279.

[1] = system: LNCaP prostate cancer cells; test: Measurement of cellular proliferation, LNCaP cells; on Effect on proliferation of LNCaP cells: test concentration or dose not given here; type: cell-based, human; conditions: for Effect on proliferation of LNCaP cells: FIGS. 10-39
Method: as §1, §2, §3

[2] = system: PC3 prostate cancer cells; test: Measurement of cellular proliferation, PC3 cells; type: cell-based, human; conditions: for Effect on proliferation of PC3 cells: 48 hours, FIGS. 10-39; for IC50: PC-3, 48 hours, read-out: PROLIFERATION IC50 PC-3
Method: as §1, §2, §3

[3] = system: MDA-468 (breast cancer cell); test: Measurement of cellular proliferation, MDA-468 cells; on Effect on proliferation of MDA-468 cells: test concentration or dose not given here; type: cell-based; conditions: for Effect on proliferation of MDA-468 cells: 48 hours, FIGS. 10-39; for IC50: MDA-468, 48 hours
Method: as §1, §2, §3

[4] = system: MDA-361 cells (breast cancer cell); test: Measurement of cellular proliferation, MDA-361 cells; type: cell-based; conditions: for Effect on proliferation of MDA-361 cells: 48 hours, FIGS. 10-39
Method: as §1, §2, §3

[5] = system: DU145 (prostate cancer cell); test: Measurement of cellular proliferation, DU145 cells; type: cell-based; conditions: DU 145, 48 hours
Method: as §1, §2, §3

[6] = system: MCF-7 (breast cancer cell); test: Measurement of cellular proliferation, MCF-7 cells; type: cell-based; conditions: MCF-7, 48 hours
Method: as §1, §2, §3

[7] = system: MIA PaCa-2 (pancreatic cancer cell); test: Measurement of cellular proliferation, MIA PaCa-2 cells; type: cell-based; conditions: MIA PaCa-2, 48 hours
Method: as §1, §2, §3

[8] = system: Hep G2 (liver cancer cell); test: Measurement of cellular proliferation, Hep G2 cells; type: cell-based; conditions: Hep G2, 48 hours
Method: as §1, §2, §3

[9] = system: A549 (non-small cell lung cancer cells); test: Measurement of cellular proliferation, A549 cells; type: cell-based; conditions: A549, 48 hours
Method: as §1, §2, §3

[10] = system: NCI H460 (non-small cell lung cancer cells); test: Measurement of cellular proliferation, NCI H460 cells; type: cell-based; conditions: NCI H460, 48 hours; read-out: PROLIFERATION IC50 NCl H460
Method: as §1, §2, §3

[11] = system: HT-29 (colon cancer cell); test: Measurement of cellular proliferation, HT-29 cells; type: cell-based; conditions: HT-29, 48 hours
Method: as §1, §2, §3

[12] = system: HCT-116 (colon cancer cell); test: Measurement of cellular proliferation, HCT-116 cells; type: cell-based; conditions: HCT 116, 48 hours
Method: as §1, §2, §3

[13] = system: SK OV-3 (ovarian cancer cell); test: Measurement of cellular proliferation, SK OV-3 cells; type: cell-based; conditions: SK-OV-3, 48 hours
Method: as §1, §2, §3

[14] = Jurkat, 48 hours, read-out: PROLIFERATION IC50 Jurkat
[15] = LNCaP, 48 hours, read-out: PROLIFERATION IC50 LNCaP
[16] = MDA-361, 48 hours, read-out: PROLIFERATION IC50 MDA-361
[17] = Example 7, Jurkat, read-out: cell proliferation test of Example 6 repeated, Jurkat
[18] = Example 7, LNCaP, read-out: cell proliferation test of Example 6 repeated, LNCaP
[19] = Example 7, MDA-361, read-out: cell proliferation test of Example 6 repeated, MDA-361

| SMILES | Effect on proliferation of Jurkat cells (Jurkat cells; 48 hours) | Effect on proliferation of LNCaP cells ([1]; 48 hours) | Effect on proliferation of PC3 cells [2] | Effect on proliferation of MDA-468 cells [3] | Effect on proliferation of MDA-361 cells [4] | IC50 (Jurkat cells; [14]) [µM] | IC50 [1, 15] [µM] | IC50 [2] [µM] | IC50 [5] [µM] | IC50 [3] [µM] | IC50 [4, 16] [µM] | IC50 [6] [µM] | IC50 [7] [µM] | IC50 [8] [µM] | IC50 [9] [µM] | IC50 [10] [µM] | IC50 [11] [µM] | IC50 [12] [µM] | IC50 [13] [µM] | further results |
| --- | --- | --- | --- | --- | --- | --- | --- | --- | --- | --- | --- | --- | --- | --- | --- | --- | --- | --- | --- | --- |
| c1ccc(C(CN2CCCCC2)c2ccccc2)cc1 [MMR-64] | inhibition | inhibition | inhibition | inhibition | inhibition |  |  |  |  |  |  |  |  |  |  |  |  |  |  |  |
| c1ccc(C(CN2CCC(COC(c3ccccc3)c3ccccc3)CC2)c2ccccc2)cc1 [MMR-70] | inhibition | inhibition | inhibition | inhibition | inhibition |  |  |  |  |  |  |  |  |  |  |  |  |  |  |  |
| COc1ccc(CCN2CCC(COC(c3ccccc3)c3ccccc3)CC2)cc1 [TH-1087] | concentration dependent inhibition | concentration dependent inhibition | concentration dependent inhibition | concentration dependent inhibition | concentration dependent inhibition |  |  |  |  |  |  |  |  |  |  |  |  |  |  |  |
| COc1ccc(CCN2CCCC2COC(c2ccccc2)c2ccccc2)cc1 (stereo not drawn) [TH-1113] | concentration dependent inhibition | concentration dependent inhibition | concentration dependent inhibition | concentration dependent inhibition | concentration dependent inhibition |  |  |  |  |  |  |  |  |  |  |  |  |  |  |  |
| COc1ccc(CCN2CCCC(COC(c3ccccc3)c3ccc(Cl)cc3)C2)cc1 (stereo not drawn) [TH-1205] | concentration dependent inhibition | concentration dependent inhibition | concentration dependent inhibition | concentration dependent inhibition | concentration dependent inhibition | 11 | 5 | 23 | 21 | 13 | 19 | 70 | 17 | 40 | 93 | 35 | ~100 | 30 | 33 |  |
| COc1ccc(CCN2CCCC2COC(c2ccccc2)c2ccc(Cl)cc2)cc1 (stereo not drawn) [TH-1211] | concentration dependent inhibition | concentration dependent inhibition | concentration dependent inhibition | concentration dependent inhibition | concentration dependent inhibition | 4 | 3 | 17 | 13 | 11 | 14 | 24 | 17 | 20 | 41 | 13 | ~90 | 32 | 23 |  |
| COc1ccc(CCN2CCC[C@H]2COC(c2ccc(Cl)cc2)c2ccc(Cl)cc2)cc1 [TH-2019] |  |  |  |  |  | 7 | 4 | 19 | 28 | 21 | 23 | 30 | 17 | 30 | 72 | 12 | ~100 | 31 | 30 |  |
| COc1ccc(CCN2CCC(COC(c3ccccc3)c3ccc(Cl)cc3)CC2)cc1 (stereo not drawn) [TH-2029] |  |  |  |  |  | 11 | 5 | 18 | 17 | 10 | 16 | 37 | 17 | 30 | 26 | 24 | ~60 | 18 | 24 |  |
| COc1ccc(CCN2CCC(COC(c3ccc(Cl)cc3)c3ccc(Cl)cc3)CC2)cc1 [TH-2043] |  |  |  |  |  | 8 | 4 | 14 | 9 | 8 | 13 | 29 | 17 | > 100 | 20 | 10 | > 100 | 10 | 23 |  |
| COc1ccc(CCCN2CCC[C@H]2COC2c3ccccc3-c3ccccc32)cc1 [TH-2085] |  |  |  |  |  | 10 | 4 | 36 | 41 | 14 | 26 | 33 | 17 | 28 | 90 | 31 | ~60 | 50 | 80 |  |
| COc1ccccc1CCN1CCC[C@H]1COC(c1ccccc1)c1ccc(Cl)cc1 (stereo partly drawn) [TH-3104] |  |  |  |  |  |  |  |  |  |  |  |  |  |  |  |  |  |  |  | IC50 (Jurkat cells; [17]): 3.8 µM; IC50 [1, 18]: 2.4 µM; IC50 [4, 19]: 13 µM |
| COc1cccc(CCN2CCC[C@H]2COC(c2ccccc2)c2ccc(Cl)cc2)c1 (stereo partly drawn) [TH-3105] |  |  |  |  |  |  |  |  |  |  |  |  |  |  |  |  |  |  |  | IC50 (Jurkat cells; [17]): 5 µM; IC50 [1, 18]: 3.2 µM; IC50 [4, 19]: 29 µM |
